Source: paper PMC8434007 (Molecules, 2021)
Where a name gives a salt, the structure may show the parent alone. Read-outs that look alike come from different tables or passages of the source.

Tests used:
Assay in all cases: biochemical
bovine thrombin = target: T1, bovine thrombin (Bos taurus, UniProt P00735); conditions: for inhibition at 50 µM: read-out: inhibition percentage ± SEM, thr
T1 construct: purchased Sigma-Aldrich (Milan, Italy)

human recombinant fXa = target: T2, human recombinant fXa (Homo sapiens, UniProt P00742); conditions: for inhibition at 50 µM: read-out: inhibition percentage ± SEM, fXa
T2 construct: purchased Chromogenix AB-Instrumentation Laboratories (Milan, Italy)

[1] = target: T3, electric eel acetylcholinesterase (eeAChE) (Electrophorus electricus, UniProt O42275); type: biochemical; conditions: for inhibition at 10 µM: read-out: inhibition percentage ± SEM, AChE
T3 construct: AChE (from electric eel) and BChE (from horse serum); from tissue

[2] = target: T4, horse serum butyrylcholinesterase (eqBChE) (Equus caballus, UniProt P81908); conditions: for inhibition at 10 µM: read-out: inhibition percentage ± SEM, BChE
T4 construct: AChE (from electric eel) and BChE (from horse serum); from tissue; host or cells: horse serum

[3] = bovine serum thrombin, Cheng–Prousoff from IC50, pH 8, read-out: Ki thr
[4] = human recombinant fXa, Cheng–Prousoff from IC50, pH 8, read-out: Ki fXa
[5] = electric eel AChE, Cheng–Prousoff from IC50, read-out: Ki AChE
[6] = horse serum BChE, Cheng–Prousoff from IC50, read-out: Ki BChE

T2 sequence (P00742 235-488 limits assumed): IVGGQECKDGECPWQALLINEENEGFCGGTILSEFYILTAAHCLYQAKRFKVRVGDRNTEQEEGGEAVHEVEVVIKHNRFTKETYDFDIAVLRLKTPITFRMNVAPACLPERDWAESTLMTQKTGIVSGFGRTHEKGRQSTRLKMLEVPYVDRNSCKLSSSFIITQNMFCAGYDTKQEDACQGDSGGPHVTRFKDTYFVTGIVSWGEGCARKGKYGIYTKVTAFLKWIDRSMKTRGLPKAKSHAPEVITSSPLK
T2 sequence (P00742 41-179 partner limits assumed): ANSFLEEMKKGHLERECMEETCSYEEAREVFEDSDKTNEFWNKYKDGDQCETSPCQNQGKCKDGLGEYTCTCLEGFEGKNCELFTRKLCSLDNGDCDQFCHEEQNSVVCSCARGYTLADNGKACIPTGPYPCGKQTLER
T4 sequence (P81908 whole entry): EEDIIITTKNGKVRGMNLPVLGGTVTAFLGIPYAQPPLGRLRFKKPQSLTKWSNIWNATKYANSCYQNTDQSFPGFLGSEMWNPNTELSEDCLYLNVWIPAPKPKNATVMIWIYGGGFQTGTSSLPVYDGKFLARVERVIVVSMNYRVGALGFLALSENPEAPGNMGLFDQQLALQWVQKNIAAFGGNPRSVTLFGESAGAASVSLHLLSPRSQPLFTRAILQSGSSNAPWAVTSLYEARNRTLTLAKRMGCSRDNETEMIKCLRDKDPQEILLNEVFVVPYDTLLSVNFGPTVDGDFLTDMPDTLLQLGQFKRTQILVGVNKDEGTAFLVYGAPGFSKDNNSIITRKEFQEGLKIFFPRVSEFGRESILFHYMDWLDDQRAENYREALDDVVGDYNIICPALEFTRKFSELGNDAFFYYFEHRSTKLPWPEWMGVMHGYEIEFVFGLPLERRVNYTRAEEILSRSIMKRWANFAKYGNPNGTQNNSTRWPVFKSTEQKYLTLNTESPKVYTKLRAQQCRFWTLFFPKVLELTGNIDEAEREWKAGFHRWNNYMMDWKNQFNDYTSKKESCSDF
T3 sequence (O42275 24-633): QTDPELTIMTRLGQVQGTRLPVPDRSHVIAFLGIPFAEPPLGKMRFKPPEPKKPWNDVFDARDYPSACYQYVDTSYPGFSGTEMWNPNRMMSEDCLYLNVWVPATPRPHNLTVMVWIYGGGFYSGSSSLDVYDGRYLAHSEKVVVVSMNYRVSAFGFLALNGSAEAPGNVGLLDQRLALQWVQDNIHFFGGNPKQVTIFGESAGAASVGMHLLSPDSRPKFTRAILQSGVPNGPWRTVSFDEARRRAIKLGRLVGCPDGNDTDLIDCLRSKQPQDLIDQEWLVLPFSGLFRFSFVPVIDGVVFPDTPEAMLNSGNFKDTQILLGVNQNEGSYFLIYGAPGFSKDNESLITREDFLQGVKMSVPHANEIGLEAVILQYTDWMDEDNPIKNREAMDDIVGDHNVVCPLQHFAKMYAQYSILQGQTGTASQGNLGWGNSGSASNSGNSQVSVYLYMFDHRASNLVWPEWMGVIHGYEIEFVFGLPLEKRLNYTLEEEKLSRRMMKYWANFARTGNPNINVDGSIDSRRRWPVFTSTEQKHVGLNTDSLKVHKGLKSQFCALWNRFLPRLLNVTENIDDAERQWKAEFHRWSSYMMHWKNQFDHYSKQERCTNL

| Compound | Ki (bovine thrombin; [3]) [nM] | Ki (human recombinant fXa; [4]) [nM] | Ki [1, 5] [nM] | Ki [2, 6] [nM] | also measured |
| --- | --- | --- | --- | --- | --- |
| N-(2-(3-chlorobenzyloxy)phenyl)-1-isopropylpiperidine-4-carboxamide [Compound 28] | 23000 | 867 | 7000 | 4100 | – |
| [H]/N=C(/N)c1ccc(NCc2nc3cc(C(=O)N(CCC(=O)O)c4ccccn4)ccc3n2C)cc1 [dabigatran, reference compound] | – | – | – | – | Ki (bovine thrombin): 4.2 nM; inhibition at 10 µM ([2]; horse serum BChE): 36% |
| O=C(Nc1ccccc1OCc1ccc(F)cc1)C1CCN(C2CCCC2)CC1 [Compound 19, N-(2-(4-fluorobenzyloxy)phenyl)-1-cyclopentylpiperidine-4-carboxamide] | – | – | – | 215 | inhibition at 50 µM (bovine thrombin; bovine serum thrombin): 12%; inhibition at 50 µM (human recombinant fXa; human recombinant fXa): 28%; inhibition at 10 µM [1]: 35% |
| N=C(N)N1CCC(C(=O)Nc2cccc(OCc3cc(-c4cccc(Cl)c4)on3)c2)CC1 [Compound 29] | 15300 | 388 | 10000 | 1120 | – |
| CC(C)N1CCC(C(=O)Nc2ccc(OCc3ccc(F)cc3)cc2)CC1 [Compound 16, N-(4-(4-fluorobenzyloxy)phenyl)-1-isopropylpiperidine-4-carboxamide] | – | – | 6250 | 2360 | inhibition at 50 µM (bovine thrombin; bovine serum thrombin): 11%; inhibition at 50 µM (human recombinant fXa; human recombinant fXa): 5% |
| N=C(N)N1CCC(C(=O)Nc2cccc(OCc3ccc(-c4ccc(Cl)cc4)cc3)c2)CC1 [Compound 23] | 2040 | – | 5800 | 90 | Ki (human recombinant fXa; human fXa, read-out: Ki fXa): 31 ± 1 nM |
| O=C(Nc1cccc(OCc2cccc(F)c2)c1)C1CCN(c2ccncc2)CC1 [Compound 1] | 6 | 5600 | 58 | 6950 | mechanism of eeAChE inhibition ([1]; Lineweaver–Burk, changed both Vmax and KM): noncompetitive/mixed-type inhibition; Ki ([1]; read-out: Ki eeAChE from replot of Lineweaver–Burk slopes versus inhibitor concentration): 56 nM; experimental ΔΔG score ([1]; thr vs AChE inhibition, one unit higher than predicted by docking): about 1.3 kcal/mol |
| N=C(N)N1CCC(C(=O)Nc2cccc(OCc3ccc(F)cc3)c2)CC1 [Compound 13] | 20000 | 33000 | 10000 | 260 | – |
| O=C(NCc1ccc(F)cc1)c1cccc(NC(=O)C2CCN(c3ccncc3)CC2)c1 [Compound 10, N-(3-(4-fluorobenzylcarbamoyl)phenyl)-1-(pyridin-4-yl)piperidine-4-carboxamide] | 10600 | 2400 | 255 | 370 | – |
| CC(C)N1CCC(C(=O)Nc2ccccc2OCc2ccc(Cl)cc2)CC1 [Compound 20, N-(2-(4-chlorobenzyloxy)phenyl)-1-isopropylpiperidine-4-carboxamide] | – | 484 | – | 105 | inhibition at 50 µM (bovine thrombin; bovine serum thrombin): 20%; inhibition at 10 µM [1]: 11% |
| CC(C)N1CCC(C(=O)Nc2cccc(OCc3cc(-c4ccc(Cl)cc4)on3)c2)CC1 [Compound 24] | – | 218 | 6300 | 3060 | inhibition at 50 µM (bovine thrombin; bovine serum thrombin): 15% |
| CC(C)N1CCC(C(=O)Nc2cccc(OCc3ccc(-c4ccc(Cl)cc4)cc3)c2)CC1 [Compound 22] | – | 165 | 3330 | – | inhibition at 50 µM (bovine thrombin; bovine serum thrombin): 5%; inhibition at 10 µM ([2]; horse serum BChE): 35% |
| O=C(Nc1cccc(OCCc2ccc(F)cc2)c1)C1CCN(c2ccncc2)CC1 [Compound 7] | 4460 | 133 | 650 | 5630 | – |
| O=C(Nc1ccccc1OCc1cccc(F)c1)C1CCN(c2ccncc2)CC1 [Compound 5] | – | – | – | 655 | inhibition at 50 µM (bovine thrombin; bovine serum thrombin): 10%; inhibition at 50 µM (human recombinant fXa; human recombinant fXa): 2%; inhibition at 10 µM [1]: 12% |
| O=C(Nc1cccc(OCc2ccc(F)cc2)c1)C1CCN(C2CCCC2)CC1 [Compound 15, N-(3-(4-fluorobenzyloxy)phenyl)-1-cyclopentylpiperidine-4-carboxamide] | 30000 | – | – | 115 | inhibition at 50 µM (human recombinant fXa; human recombinant fXa): 40%; inhibition at 10 µM [1]: 27% |
| O=C(Nc1cccc(CCc2ccc(F)cc2)c1)C1CCN(c2ccncc2)CC1 [Compound 8] | 3720 | 37700 | 495 | 8200 | – |

| Compound | Ki (bovine thrombin; [3]) [nM] | Ki (human recombinant fXa; [4]) [nM] | Ki [1, 5] [nM] | Ki [2, 6] [nM] | also measured |
| --- | --- | --- | --- | --- | --- |
| CC(C)N1CCC(C(=O)Nc2cccc(OCc3ccc(F)cc3)c2)CC1 [Compound 14, N-(3-(4-fluorobenzyloxy)phenyl)-1-isopropylpiperidine-4-carboxamide] | – | – | 15500 | 130 | inhibition at 50 µM (bovine thrombin; bovine serum thrombin): 5%; inhibition at 50 µM (human recombinant fXa; human recombinant fXa): 28%; Ki ([2]; eqBChE 0.18 U/mL, butyrylthiocholine iodide 50-300 µM, inhibitor 0-1 µM, x-axis intercept, read-out: Ki eqBChE from replot of Lineweaver–Burk slopes versus [I]): 104 nM |
| N=C(N)N1CCC(C(=O)Nc2cccc(OCc3cc(-c4ccc(Cl)s4)on3)c2)CC1 [Compound 31] | – | – | – | 1620 | Ki (human recombinant fXa): 15 nM; inhibition at 10 µM [1]: 31% |
| N=C(N)N1CCC(C(=O)Nc2ccccc2OCc2cc(-c3ccc(Cl)cc3)on2)CC1 [Compound 27] | 21200 | 60 | – | 10000 | inhibition at 10 µM [1]: 16% |
| O=C(Nc1ccc(F)cc1)c1cccc(NC(=O)C2CCN(c3ccncc3)CC2)c1 [Compound 9, N-(3-(4-fluorophenylcarbamoyl)phenyl)-1-(pyridin-4-yl)piperidine-4-carboxamide] | 4470 | 4040 | 270 | 8250 | – |
| CC(C)N1CCC(C(=O)Nc2ccccc2OCc2ccc(F)cc2)CC1 [Compound 18, N-(2-(4-fluorobenzyloxy)phenyl)-1-isopropylpiperidine-4-carboxamide] | 5350 | 10500 | – | 378 | inhibition at 10 µM [1]: 15% |
| O=C(Nc1ccc(OCc2cccc(F)c2)cc1)C1CCN(c2ccncc2)CC1 [Compound 4] | 6700 | 25100 | 3880 | 425 | – |
| CC(C)N1CCC(C(=O)Nc2cccc(OCc3cc(-c4ccc(Cl)s4)on3)c2)CC1 [Compound 30] | 16000 | 90 | 5100 | 2130 | – |
| N=C(N)N1CCC(C(=O)Nc2cccc(OCc3cc(-c4ccc(Cl)cc4)on3)c2)CC1 [Compound 25] | 630 | 26 | 11000 | 7670 | – |
| O=C(Nc1cccc(OCc2ccc(F)cc2)c1)C1CCN(c2ccncc2)CC1 [Compound 2] | 210 | 1100 | 240 | 1210 | – |
| N=C(N)N1CCC(C(=O)Nc2ccccc2OCc2ccc(Cl)cc2)CC1 [Compound 21, N-(2-(4-Chlorobenzyloxy)phenyl)-1-amidinopiperidine-4-carboxamide hydrochloride] | 25900 | 60600 | – | 8200 | inhibition at 10 µM [1]: 38% |
| O=C(Nc1cccc(OCCc2cccc(F)c2)c1)C1CCN(c2ccncc2)CC1 [Compound 6] | 2140 | 488 | 369 | 1750 | – |
| O=C(Nc1ccc(F)cc1)Nc1cccc(NC(=O)C2CCN(c3ccncc3)CC2)c1 [Compound 12, 1-(3-(1-(pyridin-4-yl)piperidine-4-carboxamido)phenyl)-3-(4-fluorophenyl)urea] | 26700 | 16500 | 735 | – | inhibition at 10 µM ([2]; horse serum BChE): 15% |
| CC(C)N1CCC(C(=O)Nc2ccccc2OCc2cc(-c3ccc(Cl)cc3)on2)CC1 [Compound 26] | 13700 | 7 | 11500 | 1110 | – |
| O=C(Nc1ccc(OCc2ccc(F)cc2)cc1)C1CCN(C2CCCC2)CC1 [Compound 17, N-(4-(4-fluorobenzyloxy)phenyl)-1-cyclopentylpiperidine-4-carboxamide] | – | – | 3520 | 255 | inhibition at 50 µM (bovine thrombin; bovine serum thrombin): 25%; inhibition at 50 µM (human recombinant fXa; human recombinant fXa): 28% |
| O=C(Nc1cccc(COc2ccc(F)cc2)c1)C1CCN(c2ccncc2)CC1 [Compound 3] | 26800 | 774 | 165 | 2600 | – |
